Reference: patent EP3670512A1, “DIAZABICYCLOOCTANONES AS INHIBITORS OF SERINE BETA-LACTAMASES” (Antabio SAS, priority 2018, dated 2020)
In brackets after ≈: the same amount, converted by molar mass.

Key:
AmpC = assay: In vitro enzyme inhibition assay (nitrocefin hydrolysis), AmpC; assay type: biochemical; conditions: nitrocefin 100µM, 10mM HEPES pH 7.5; banded; read-out: Amp-C mean IC50
Description: (§1) Compound dilution was performed in DMSO.

[1] = tested on: NTBC091.1 (E. coli strain expressing KPC-2, TEM-1); assay: Meropenem potentiation, broth micro-dilution MIC, strain NTBC091.1; assay type: cell-based; conditions: for MIC mero + 4 µg/mL inhibitor: NTBC091.1, MIC of meropenem with 4 µg/mL of the labelled compound; for MIC of combination with meropenem compared with the combination of meropenem and avibactam: strain NTBC091.1
[2] = tested on: NTBC093 (E. cloacae strain expressing KPC-2, TEM-1); assay: Meropenem potentiation, broth micro-dilution MIC, strain NTBC093; assay type: cell-based; conditions: for MIC mero + 4 µg/mL inhibitor: NTBC093, MIC of meropenem with 4 µg/mL of the labelled compound, banded
[3] = tested on: NTBC096.1 (K. pneumoniae strain expressing OXA-181 and SHV-11); assay: Meropenem potentiation, broth micro-dilution MIC, strain NTBC096.1; assay type: cell-based
[4] = tested on: NTBC189 (K. pneumoniae strain expressing TEM-OSBL(b), CTX-M-14, OXA-48(c)); assay: Meropenem potentiation, broth micro-dilution MIC, strain NTBC189; assay type: cell-based
[5] = tested on: clinical strains of Enterobacteriaceae that are resistant to betalactam antibiotics (produce OXA variants of SBL enzymes); assay: Cumulative MIC against large panel of resistant clinical strains (Figure 1); assay type: cell-based; conditions: at an MIC of 1 µg/mL, Example 10 in combination with meropenem
Excerpt: The data is presented in Figure 1 in the standard cumulative MIC fashion.

CTX-M15 = CTX-M15 (Escherichia coli, UniProt Q9EXV5); assay: In vitro enzyme inhibition assay (nitrocefin hydrolysis), CTX-M15; assay type: biochemical; conditions: nitrocefin 50µM, 10mM HEPES pH 7.5; numeric value
Sequence of CTX-M15 (Q9EXV5 29-291, species assumed): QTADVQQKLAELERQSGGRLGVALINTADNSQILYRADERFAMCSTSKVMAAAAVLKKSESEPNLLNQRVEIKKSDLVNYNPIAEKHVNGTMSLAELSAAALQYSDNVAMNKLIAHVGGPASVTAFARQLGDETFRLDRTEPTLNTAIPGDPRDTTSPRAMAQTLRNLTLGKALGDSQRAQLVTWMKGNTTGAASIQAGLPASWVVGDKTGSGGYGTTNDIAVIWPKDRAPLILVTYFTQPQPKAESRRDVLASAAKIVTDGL
Description: as §1

[6] = tested on: NTBC099 (K. pneumoniae strain expressing KPC-3, SHV-11 and TEM-1); assay: microbe, parasite or virus in culture; assay type: cell-based; conditions: Klebsiella pneumoniae, read-out: MIC mero, µg/mL, no inhibitor
[7] = tested on: panel of 48 A. baumannii strains that are resistant to betalactam antibiotics (produces OXA variants of SBL enzymes); assay: Cumulative MIC against panel of 48 resistant strains (Figure 2); assay type: cell-based; conditions: in the presence of 16 µg/mL of each inhibitor, Example 10 in combination with meropenem
Excerpt: The data is presented in Figure 2 in the standard cumulative MIC fashion.

[8] = Klebsiella pneumoniae, read-out: MIC mero, µg/mL, no inhibitor

Compound | IC50 (AmpC) | MIC mero + 4 µg/mL inhibitor ([1]; banded) | MIC mero + 4 µg/mL inhibitor [2] | further results
O=C1N2C[C@@H](CC[C@H]2CF)N1OS(=O)(=O)[O-].[Na+] [Example 4, Sodium (2S, 5R)-2-(fluoromethyl)-7-oxo-1,6-diazabicyclo[3.2.1]octan-6-yl sulphate] | < 10 nM | (A) (MIC < 1 µg/mL (A)) | (A) (MIC < 1 µg/mL (A)) | –
O=C1N2C[C@@H](CC[C@H]2F)N1OS(=O)(=O)[O-].[Na+] [Example 10, Sodium (2R,5R)-2-fluoro-7-oxo-1,6-diazabicyclo[3.2.1]octan-6-yl sulfate] | 10 to 40 nM | (A) (MIC < 1 µg/mL (A)) | (A) (MIC < 1 µg/mL (A)) | MIC of combination with meropenem compared with the combination of meropenem and avibactam [1]: lower; MIC of combination with meropenem compared with the combination of meropenem and avibactam ([2]; strain NTBC093): similar; MIC of combination with meropenem compared with the combination of meropenem and avibactam ([3]; strain NTBC096.1): lower; MIC of combination with meropenem compared with the combination of meropenem and avibactam ([4]; strain NTBC189): lower; fraction of strains susceptible [5]: over 90%
NC(=O)[C@@H]1CC[C@@H]2CN1C(=O)N2OS(=O)(=O)O [Avibactam, avibactam] | – | – | – | IC50 (CTX-M15): 1.4 nM; MIC mero + 4 µg/mL inhibitor ([1]; numeric): 0.06 (A) µg/mL; MIC mero + 4 µg/mL inhibitor ([3]; NTBC096.1, MIC of meropenem with 4 µg/mL of the labelled compound, numeric): 1(B) µg/mL
O=C1N2C[C@@H](CC[C@H]2SC(F)(F)F)N1OS(=O)(=O)[O-].[Na+] [Example 7, Sodium (2R, 5R)-7-oxo-2-[(trifluoromethyl)sulfanyl]-1,6-diazabicyclo[3.2.1]octan-6-yl sulphate] | 40 to 60 nM | (A) (MIC < 1 µg/mL (A)) | (B) (MIC = 1 or 2 µg/mL (B)) | –
CC(F)(F)[C@@H]1CC[C@@H]2CN1C(=O)N2OS(=O)(=O)[O-].[Na+] [Example 5, Sodium (2S, 5R)-2-(1,1-difluoroethyl)-7-oxo-1,6-diazabicyclo[3.2.1]octan-6-yl sulphate] | 40 to 60 nM | (A) (MIC < 1 µg/mL (A)) | (A) (MIC < 1 µg/mL (A)) | –
O=C1N2C[C@@H](CC[C@H]2C(F)F)N1OS(=O)(=O)[O-].[Na+] [Example 2, Sodium (2S, 5R)-7-oxo-2-(difluoromethyl)-1,6-diazabicyclo[3.2.1]octan-6-yl sulfate] | 10 to 40 nM | (A) (MIC < 1 µg/mL (A)) | – | MIC mero + 4 µg/mL inhibitor ([1]; numeric): 0.03 µg/mL; MIC of combination with meropenem compared with the combination of meropenem and avibactam [1]: lower
C[C@@H](O)[C@H]1C(=O)N2C(C(=O)O)=C(S[C@@H]3CN[C@H](C(=O)N(C)C)C3)[C@H](C)[C@H]12 [meropenem, reference compound] | – | – | – | MIC ([1]; Escherichia coli, read-out: MIC mero, µg/mL, no inhibitor): 4 µg/mL; MIC ([2]; Enterobacter cloacae, read-out: MIC mero, µg/mL, no inhibitor): 8 µg/mL; MIC [3, 8]: 32 µg/mL; MIC [6]: 256 µg/mL (≈ 668 µM); MIC [4, 8]: 32 µg/mL; fraction of strains susceptible [5]: 0%; fraction of strains susceptible [7]: less than 10%
O=C1N2C[C@@H](CC[C@H]2C(Cl)Cl)N1OS(=O)(=O)[O-].[Na+] [Example 3, Sodium (2S,5R)-2-(dichloromethyl)-7-oxo-1,6-diazabicyclo[3.2.1]octan-6-yl sulfate] | 40 to 60 nM | (A) (MIC < 1 µg/mL (A)) | (A) (MIC < 1 µg/mL (A)) | –
O=C1N2C[C@@H](CC[C@H]2COC(F)(F)F)N1OS(=O)(=O)[O-].[Na+] [Example 8, Sodium (2S, 5R)-7-oxo-2-[(trifluoromethoxy)methyl]-1,6-diazabicyclo[3.2.1]octan-6-yl sulphate] | 40 to 60 nM | (A) (MIC < 1 µg/mL (A)) | (A) (MIC < 1 µg/mL (A)) | –
O=C1N2C[C@@H](CC[C@H]2C(F)(F)c2nccs2)N1OS(=O)(=O)[O-].[Na+] [Example 9, Sodium (2S, 5R)-2-[difluoro(1,3-thiazol-2-yl)methyl]-7-oxo-1,6-diazabicyclo[3.2.1]octan-6-yl sulphate] | < 10 nM | (A) (MIC < 1 µg/mL (A)) | (A) (MIC < 1 µg/mL (A)) | –
O=C1N2C[C@@H](CC[C@H]2Cl)N1OS(=O)(=O)[O-].[Na+] [Example 12, Sodium (2R,5R)-2-chloro-7-oxo-1,6-diazabicyclo[3.2.1]octan-6-yl sulfate] | < 10 nM | (A) (MIC < 1 µg/mL (A)) | (A) (MIC < 1 µg/mL (A)) | MIC of combination with meropenem compared with the combination of meropenem and avibactam [1]: lower
O=C1N2C[C@@H](CC[C@@H]2F)N1OS(=O)(=O)[O-].[Na+] [Example 11, Sodium (2S, 5R)-2-fluoro-7-oxo-1,6-diazabicyclo [3.2.1] octan-6-yl sulfate] | > 60 nM | (A) (MIC < 1 µg/mL (A)) | (B) (MIC = 1 or 2 µg/mL (B)) | –
O=C1N2C[C@@H](CC[C@H]2CCl)N1OS(=O)(=O)[O-].[Na+] [Example 6, Sodium (2S, 5R)-2-(chloromethyl)-7-oxo-1,6-diazabicyclo[3.2.1]octan-6-yl sulphate] | 10 to 40 nM | (A) (MIC < 1 µg/mL (A)) | (A) (MIC < 1 µg/mL (A)) | –
O=C1N2C[C@@H](CC[C@H]2C(F)(F)F)N1OS(=O)(=O)[O-].[Na+] [Example 1, Sodium (2S, 5R)-7-oxo-2-(trifluoromethyl)-1,6-diazabicyclo[3.2.1]octan-6-yl sulfate] | < 10 nM | (A) (MIC < 1 µg/mL (A)) | – | MIC mero + 4 µg/mL inhibitor ([1]; numeric): 0.03 µg/mL; MIC of combination with meropenem compared with the combination of meropenem and avibactam [1]: lower
